Molecules are shown by their SMILES. Where only a bound is given, the exact number is not on record here.

The target in series [1] is 5-hydroxytryptamine receptor 5A (Homo sapiens, UniProt P47898). Description: Displacement of [3H]LSD from human recombinant 5-HT5a receptor after 120 mins by scintillation counting analysis. For orientation: In a radioligand displacement assay an active substance lowers the binding of a labelled ligand.
In series [2] the target is Beta-1 adrenergic receptor (Homo sapiens, UniProt P08588). Description: Displacement of [3H](-)CGP 12177 from human beta1 adrenoceptor at 1 uM after 60 mins by scintillation counting analysis relative to control.
The target in series [3] is Activin receptor type-1B (Homo sapiens) (UniProt P36896). Put plainly: Inhibition of recombinant GST-tagged human ACVR1B catalytic domain (150 to 505 residues) expressed in baculovirus expression system at 10 uM in presence of ATP relative to control.
For series [4], the system named is Casein kinase II subunit alpha' (CSNK2A2). Description: Inhibition of CK2alpha2 (unknown origin) at 10 uM in presence of ATP relative to control. Conditions: Homo sapiens.
For series [5], the target named is 5-hydroxytryptamine receptor 6 (Homo sapiens, UniProt P50406). Put plainly: Displacement of [3H]LSD from human recombinant 5-HT6 receptor at 1 uM after 120 mins by scintillation counting analysis relative to control.
The target in series [6] is Fibroblast growth factor receptor 1 (Homo sapiens) (UniProt P11362). Put plainly: Inhibition of recombinant His-tagged human FGFR1 cytoplasmic domain expressed in baculovirus expression system at 10 uM in presence of ATP relative to control.
Series [7] has as its target 5-hydroxytryptamine receptor 1A (Homo sapiens) (UniProt P08908). Description: Displacement of [3H]8-OH-DPAT from recombinant human 5-HT1A receptor at 1 uM after 60 mins by scintillation counting analysis relative to control.
In series [8] the target is Neuromedin-K receptor (Homo sapiens) (UniProt P29371). Put plainly: Displacement of [3H]SR 142801 from human recombinant NK3 receptor at 1 uM after 120 mins by scintillation counting analysis relative to control.
In series [9] the target is Ribosomal protein S6 kinase alpha-2 (Homo sapiens) (UniProt Q15349). Description: Inhibition of recombinant full length GST-tagged human RSK3 expressed in insect cells at 10 uM in presence of ATP relative to control.
A short description of series [10]: AUC (0 to infinity) in Sprague-Dawley rat at 1 mg/kg, iv. Conditions: in vivo. Set-up: dose 1 mg/kg, time infinity, route intravenous. The class given is ADME, organism-based.
For series [11], the target named is T1, PXR (NR1I2) (Homo sapiens, UniProt O75469).
T1 sequence (O75469 whole entry): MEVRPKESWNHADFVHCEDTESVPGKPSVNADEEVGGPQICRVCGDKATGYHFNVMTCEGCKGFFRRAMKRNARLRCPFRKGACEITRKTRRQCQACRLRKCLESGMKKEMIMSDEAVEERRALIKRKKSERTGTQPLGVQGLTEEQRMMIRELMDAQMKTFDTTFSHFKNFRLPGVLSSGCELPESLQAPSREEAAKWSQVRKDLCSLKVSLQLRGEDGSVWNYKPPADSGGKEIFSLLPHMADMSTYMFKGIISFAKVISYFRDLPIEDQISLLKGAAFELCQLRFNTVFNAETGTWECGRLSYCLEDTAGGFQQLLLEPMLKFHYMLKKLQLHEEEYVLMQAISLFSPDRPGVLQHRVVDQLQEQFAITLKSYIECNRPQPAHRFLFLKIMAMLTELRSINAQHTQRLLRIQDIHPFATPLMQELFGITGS
Description: […] at PXR LBD (unknown origin) expressed in HEK293 cells […] at 1 uM after 16 hrs by luciferase reporter gene assay relative to rifampicin. The class given is ADME, cell-based. The following applies: HEK293 cells expressing PXR LBD, read-out: Efficacy.

Series [12] deals with Mu-type opioid receptor (Homo sapiens, UniProt P35372). Put plainly: Displacement of [3H]DAMGO from human recombinant mu receptor at 1 uM after 120 mins by scintillation counting analysis relative to control.
Series [13] deals with Endothelin-1 receptor (Homo sapiens) (UniProt P25101). Description: Displacement of [125I]-endothelin-1 from human recombinant ETA receptor at 10 uM after 120 mins by scintillation counting analysis relative to control.
The target of series [14] is T2, Nuclear receptor ROR-beta (Homo sapiens, UniProt Q92753).
T2 sequence (Q92753 whole entry): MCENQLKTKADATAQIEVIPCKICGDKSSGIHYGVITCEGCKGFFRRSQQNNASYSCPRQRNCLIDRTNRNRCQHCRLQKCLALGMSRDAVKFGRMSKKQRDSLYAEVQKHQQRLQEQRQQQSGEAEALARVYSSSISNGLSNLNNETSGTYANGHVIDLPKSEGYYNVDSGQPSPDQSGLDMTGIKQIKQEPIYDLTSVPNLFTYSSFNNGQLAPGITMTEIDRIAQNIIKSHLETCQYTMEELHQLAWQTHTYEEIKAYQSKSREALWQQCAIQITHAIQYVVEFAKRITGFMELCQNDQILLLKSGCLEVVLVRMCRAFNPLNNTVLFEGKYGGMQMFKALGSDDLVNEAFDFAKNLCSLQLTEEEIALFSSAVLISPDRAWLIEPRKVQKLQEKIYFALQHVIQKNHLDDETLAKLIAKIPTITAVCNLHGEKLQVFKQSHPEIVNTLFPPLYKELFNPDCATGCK
Put plainly: Binding affinity to recombinant human RORbeta LBD (201 to 452 residues) expressed in Escherichia coli BL21 (DE3) GOLD by 1,8-ANS dye-based thermofluor assay.

The target in series [15] is Sodium-dependent serotonin transporter (Homo sapiens, UniProt P31645). Put plainly: Displacement of [3H]-imipramine from recombinant human 5-HT transporter after 60 mins by scintillation counting relative to control.
In series [16] the target is Vasopressin V1a receptor (Homo sapiens, UniProt P37288). Description: Displacement of [3H]AVP from human recombinant V1a receptor after 60 mins by scintillation counting analysis.
In series [17] the target is B2 bradykinin receptor (Homo sapiens, UniProt P30411). Description: Displacement of [3H]bradykinin from human recombinant B2 receptor after 60 mins by scintillation counting analysis.
Series [18] has as its target Histamine H2 receptor (Homo sapiens, UniProt P25021). Description: Displacement of [125I]APT from human recombinant histamine H2 receptor at 10 uM after 120 mins by scintillation counting analysis relative to control.
Series [19] addresses Serine/threonine-protein kinase PAK 4 (Homo sapiens) (UniProt O96013). Description: Inhibition of recombinant GST-tagged human PAK4 catalytic domain expressed in baculovirus expression system at 10 uM in presence of ATP relative to control.
In series [20] the target is Cholecystokinin receptor type A (Homo sapiens, UniProt P32238). Put plainly: Displacement of [125I]CCK-8s from human recombinant CCK1 receptor after 60 mins by scintillation counting analysis.
Series [21] concerns the target Kappa-type opioid receptor (Homo sapiens, UniProt P41145). Description: Displacement of [3H]U69593 from human kappa receptor at 10 uM after 60 mins by scintillation counting analysis relative to control.
Series [22] concerns the target Serine/threonine-protein kinase PLK3 (Homo sapiens) (UniProt Q9H4B4). Put plainly: Inhibition of GST-tagged human PLK3 catalytic domain expressed in baculovirus expression system at 10 uM in presence of ATP relative to control.

Chain of Endothelin-1 receptor (Homo sapiens) (P25101 whole entry): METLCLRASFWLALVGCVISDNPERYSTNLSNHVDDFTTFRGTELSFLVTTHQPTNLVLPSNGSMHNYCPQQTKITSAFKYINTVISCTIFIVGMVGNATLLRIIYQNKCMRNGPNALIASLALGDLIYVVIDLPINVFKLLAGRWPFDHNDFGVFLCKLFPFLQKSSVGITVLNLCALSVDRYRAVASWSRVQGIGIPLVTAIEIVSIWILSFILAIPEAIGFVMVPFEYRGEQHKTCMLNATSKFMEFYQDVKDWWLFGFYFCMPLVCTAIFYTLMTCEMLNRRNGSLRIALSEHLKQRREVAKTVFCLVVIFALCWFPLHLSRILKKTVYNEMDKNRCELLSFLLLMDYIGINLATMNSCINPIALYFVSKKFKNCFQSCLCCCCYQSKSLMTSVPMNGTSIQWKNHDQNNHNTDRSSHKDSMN
Chain of Kappa-type opioid receptor (P41145 whole entry, the tested form may be a part): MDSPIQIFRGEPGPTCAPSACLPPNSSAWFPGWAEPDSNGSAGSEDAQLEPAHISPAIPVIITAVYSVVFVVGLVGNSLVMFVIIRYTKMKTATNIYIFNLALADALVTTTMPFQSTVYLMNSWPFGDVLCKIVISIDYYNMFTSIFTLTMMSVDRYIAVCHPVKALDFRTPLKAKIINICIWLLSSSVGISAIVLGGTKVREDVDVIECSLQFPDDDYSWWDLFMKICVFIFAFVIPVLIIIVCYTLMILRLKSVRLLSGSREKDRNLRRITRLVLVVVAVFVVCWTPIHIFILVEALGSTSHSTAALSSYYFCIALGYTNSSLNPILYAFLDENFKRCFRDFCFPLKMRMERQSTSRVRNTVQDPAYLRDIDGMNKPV
Chain of Neuromedin-K receptor (Homo sapiens) (P29371 whole entry): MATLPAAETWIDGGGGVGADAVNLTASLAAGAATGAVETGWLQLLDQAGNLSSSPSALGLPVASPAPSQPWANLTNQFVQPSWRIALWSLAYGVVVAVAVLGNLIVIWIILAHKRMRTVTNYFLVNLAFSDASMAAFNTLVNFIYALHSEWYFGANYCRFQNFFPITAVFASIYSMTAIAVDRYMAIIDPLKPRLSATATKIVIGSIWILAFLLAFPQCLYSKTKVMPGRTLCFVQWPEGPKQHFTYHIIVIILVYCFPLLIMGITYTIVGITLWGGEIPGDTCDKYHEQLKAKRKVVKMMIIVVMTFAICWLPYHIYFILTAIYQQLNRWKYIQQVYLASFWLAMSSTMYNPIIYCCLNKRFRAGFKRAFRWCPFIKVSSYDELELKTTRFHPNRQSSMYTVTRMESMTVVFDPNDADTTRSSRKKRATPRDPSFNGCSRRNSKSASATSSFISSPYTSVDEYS
Chain of Fibroblast growth factor receptor 1 (Homo sapiens) (P11362 22-822 limits assumed): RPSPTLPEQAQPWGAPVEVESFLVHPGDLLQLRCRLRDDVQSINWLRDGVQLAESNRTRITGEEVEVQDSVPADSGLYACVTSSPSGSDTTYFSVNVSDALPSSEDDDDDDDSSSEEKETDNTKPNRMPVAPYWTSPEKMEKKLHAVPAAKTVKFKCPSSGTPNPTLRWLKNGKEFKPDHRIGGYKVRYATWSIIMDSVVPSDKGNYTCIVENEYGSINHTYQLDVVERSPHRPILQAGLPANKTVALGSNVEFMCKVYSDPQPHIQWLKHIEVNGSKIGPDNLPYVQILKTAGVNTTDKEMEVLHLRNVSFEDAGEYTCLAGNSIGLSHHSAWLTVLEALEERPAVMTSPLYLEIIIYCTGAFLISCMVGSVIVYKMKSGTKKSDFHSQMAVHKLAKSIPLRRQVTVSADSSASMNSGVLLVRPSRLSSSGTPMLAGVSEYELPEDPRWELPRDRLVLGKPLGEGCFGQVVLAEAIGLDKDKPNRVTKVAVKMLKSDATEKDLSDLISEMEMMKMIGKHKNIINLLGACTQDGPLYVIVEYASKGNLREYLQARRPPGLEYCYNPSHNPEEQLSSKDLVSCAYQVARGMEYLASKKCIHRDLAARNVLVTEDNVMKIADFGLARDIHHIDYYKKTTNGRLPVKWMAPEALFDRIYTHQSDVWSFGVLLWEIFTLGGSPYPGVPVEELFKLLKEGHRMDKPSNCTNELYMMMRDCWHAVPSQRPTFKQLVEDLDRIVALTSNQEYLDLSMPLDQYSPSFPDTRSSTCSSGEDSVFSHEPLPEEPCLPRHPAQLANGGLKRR
Chain of B2 bradykinin receptor (P30411 whole entry): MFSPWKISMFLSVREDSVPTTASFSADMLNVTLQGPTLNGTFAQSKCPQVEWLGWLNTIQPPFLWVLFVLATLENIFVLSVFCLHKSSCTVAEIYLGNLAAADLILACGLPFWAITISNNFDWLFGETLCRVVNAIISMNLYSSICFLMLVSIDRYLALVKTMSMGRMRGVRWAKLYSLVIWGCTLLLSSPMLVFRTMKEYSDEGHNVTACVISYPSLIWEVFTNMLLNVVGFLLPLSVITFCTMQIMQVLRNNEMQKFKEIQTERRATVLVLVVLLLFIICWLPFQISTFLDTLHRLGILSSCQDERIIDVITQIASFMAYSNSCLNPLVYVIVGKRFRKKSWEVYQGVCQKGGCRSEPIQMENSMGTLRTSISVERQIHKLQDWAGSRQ
Chain of Histamine H2 receptor (P25021 whole entry, the tested form may be a part): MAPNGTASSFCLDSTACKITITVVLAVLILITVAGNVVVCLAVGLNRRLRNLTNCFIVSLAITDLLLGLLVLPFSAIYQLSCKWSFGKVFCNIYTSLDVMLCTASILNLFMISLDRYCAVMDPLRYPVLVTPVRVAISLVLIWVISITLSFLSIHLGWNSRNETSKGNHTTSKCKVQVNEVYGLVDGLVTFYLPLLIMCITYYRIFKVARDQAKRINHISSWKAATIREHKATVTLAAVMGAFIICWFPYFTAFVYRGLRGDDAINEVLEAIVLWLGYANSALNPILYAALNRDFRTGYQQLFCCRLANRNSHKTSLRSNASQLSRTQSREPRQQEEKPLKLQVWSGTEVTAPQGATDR
Chain of Vasopressin V1a receptor (P37288 whole entry): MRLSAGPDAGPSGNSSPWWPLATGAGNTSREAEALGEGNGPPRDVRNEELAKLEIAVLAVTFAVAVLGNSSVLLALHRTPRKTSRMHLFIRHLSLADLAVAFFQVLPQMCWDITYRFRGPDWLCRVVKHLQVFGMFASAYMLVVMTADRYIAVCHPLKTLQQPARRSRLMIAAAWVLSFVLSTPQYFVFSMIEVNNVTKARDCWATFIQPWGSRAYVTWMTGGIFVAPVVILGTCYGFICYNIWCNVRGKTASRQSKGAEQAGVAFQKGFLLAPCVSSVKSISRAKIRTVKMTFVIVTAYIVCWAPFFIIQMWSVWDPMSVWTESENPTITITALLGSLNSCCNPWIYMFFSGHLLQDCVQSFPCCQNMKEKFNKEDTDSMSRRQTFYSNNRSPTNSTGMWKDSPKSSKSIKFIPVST
Chain of 5-hydroxytryptamine receptor 1A (Homo sapiens) (P08908 whole entry): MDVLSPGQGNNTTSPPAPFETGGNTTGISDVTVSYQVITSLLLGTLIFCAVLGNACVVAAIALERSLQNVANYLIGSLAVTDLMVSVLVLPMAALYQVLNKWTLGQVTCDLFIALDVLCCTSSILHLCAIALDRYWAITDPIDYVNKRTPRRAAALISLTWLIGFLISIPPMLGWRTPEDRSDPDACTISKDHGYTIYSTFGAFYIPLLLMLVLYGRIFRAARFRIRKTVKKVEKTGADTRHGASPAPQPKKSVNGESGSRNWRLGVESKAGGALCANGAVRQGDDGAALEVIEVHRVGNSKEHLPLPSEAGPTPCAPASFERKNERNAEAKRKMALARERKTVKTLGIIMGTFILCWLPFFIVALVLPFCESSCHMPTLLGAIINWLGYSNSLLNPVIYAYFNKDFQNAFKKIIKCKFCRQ
Chain of 5-hydroxytryptamine receptor 5A (P47898 whole entry): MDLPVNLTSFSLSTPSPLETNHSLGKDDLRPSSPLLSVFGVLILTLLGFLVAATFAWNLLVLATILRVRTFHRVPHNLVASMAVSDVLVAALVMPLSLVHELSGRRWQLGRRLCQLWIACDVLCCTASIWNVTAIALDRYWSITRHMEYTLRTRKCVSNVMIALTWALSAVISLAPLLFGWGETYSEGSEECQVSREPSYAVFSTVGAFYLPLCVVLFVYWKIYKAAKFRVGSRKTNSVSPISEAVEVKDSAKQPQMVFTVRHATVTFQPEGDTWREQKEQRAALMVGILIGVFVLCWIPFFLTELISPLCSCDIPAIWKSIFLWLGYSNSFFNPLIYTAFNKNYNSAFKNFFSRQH
Chain of Serine/threonine-protein kinase PLK3 (Homo sapiens) (Q9H4B4 whole entry, looked up, the tested form may be a part): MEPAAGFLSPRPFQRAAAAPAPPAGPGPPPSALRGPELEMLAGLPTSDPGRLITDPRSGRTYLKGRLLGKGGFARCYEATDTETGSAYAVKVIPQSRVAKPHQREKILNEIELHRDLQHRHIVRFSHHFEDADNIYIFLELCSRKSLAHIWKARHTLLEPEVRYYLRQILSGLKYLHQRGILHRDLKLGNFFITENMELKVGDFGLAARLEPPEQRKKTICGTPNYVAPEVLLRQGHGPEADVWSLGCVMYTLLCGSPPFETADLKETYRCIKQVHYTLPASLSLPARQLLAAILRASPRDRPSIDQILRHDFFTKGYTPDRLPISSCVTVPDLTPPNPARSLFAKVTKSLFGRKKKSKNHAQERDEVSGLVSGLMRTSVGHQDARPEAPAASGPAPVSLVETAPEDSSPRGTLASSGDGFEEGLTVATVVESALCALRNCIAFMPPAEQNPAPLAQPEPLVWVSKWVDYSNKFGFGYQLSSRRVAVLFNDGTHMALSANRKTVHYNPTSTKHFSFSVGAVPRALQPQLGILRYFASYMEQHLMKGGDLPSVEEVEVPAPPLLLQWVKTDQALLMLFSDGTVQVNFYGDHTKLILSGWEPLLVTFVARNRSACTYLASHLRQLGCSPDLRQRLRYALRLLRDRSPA

Regarding `CC(C)(C)NS(=O)(=O)c1ccc(-c2sc(C(=O)N[C@H]3C[C@H](C(=O)O)C3)nc2CC2CCCCC2)c2ccccc12`, the IC50 in series [1] is 106 nM; in series [15] it was 1.7 nM; in [16] it was 1.1 nM; in [17], 21 nM; in series [20], 0.12 nM. The inhibition in [2] was < 10%; in [3], -2%; in series [4] it was 2%; in series [5] it was < 10%; in series [6] it was 2%; in [7] it was < 10%. Besides, the inhibition in series [8] was < 10%; in [9] it was -4%; in series [12], < 10%; in series [13] it was < 10%; in series [18], < 10%; in series [19] it was 7%. Also, the inhibition in series [21] was < 10%; in series [22], -5%. The same compound showed an AUC(0-inf) in series [10] of 325 ng·h/mL. The Emax at 16 h, 1 µM in series [11] amounted to 141%. The Kd in series [14] was determined as 740 nM.

Usually IC50 stands for the concentration that gives 50% inhibition. What is called inhibition is the change of the read-out against control, counted positive when it falls. By AUC(0-inf) is commonly meant the area under the concentration-time curve extrapolated to infinity. Read a high AUC(0-inf) as high exposure. A word on the Kd: it is the free concentration of one partner at which half of the binding sites on the other are occupied at equilibrium, for simple one-to-one binding.

The values are drawn from ChEMBL document CHEMBL4118122, “Identification and biological evaluation of thiazole-based inverse agonists of RORγt” (Bioorg Med Chem Lett, 2018).
